Measurements taken from ChEMBL document CHEMBL5096157, “Metalloaminopeptidases of the Protozoan Parasite Plasmodium falciparum as Targets for the Discovery of Novel Antimalarial Drugs” (J Med Chem, 2021).
Values joined by “and” are separate entries in the source; they are usually repeats but may differ in a detail not shown here. Equal values may be shown once. One block for each molecule: values may come before it.

Tests used:
[1] = Inhibition of Plasmodium falciparum M18 aspartyl aminopeptidase assessed as inhibition constant
Plasmodium falciparum [2] = assay: Antimalarial activity against erythrocytic stage Plasmodium falciparum in human RBC assessed as inhibition of parasite growth at 10 uM incubated for 48 hrs by [3H]hypoxanthine incorporation assay relative to control; format: functional, Red blood cell; set-up: scale not given: the % may be the effect or the level left
Plasmodium falciparum [3] = assay: Antimalarial activity against erythrocytic stage Plasmodium falciparum in human RBC assessed as inhibition of parasite growth incubated for 48 hrs by [3H]hypoxanthine incorporation assay; format: functional, organism-based, Red blood cell; details: Erythrocyte
[4] = Half life in CD-1 mouse at 3 mg/kg, iv measured after 8 hrs hrs by UHPLC analysis; format: ADME, organism-based; details: in vivo
Plasmodium falciparum [5] = assay: Antimalarial activity against Plasmodium falciparum 3D7 CQ-sensitive assessed as inhibition of growth by liquid scintillation counting method; format: functional, organism-based
[6] = Clearance in CD-1 mouse at 3 mg/kg, iv measured after 8 hrs hrs by UHPLC analysis; format: ADME, organism-based; details: in vivo
[7] = Inhibition of recombinant Plasmodium falciparum A-M17 assessed as inhibition constant using leucine para-nitroanilide as substrate at 60 nM by spectrophotometer based method
Plasmodium chabaudi [8] = assay: In vivo antiplasmodial activity against Plasmodium chabaudi chabaudi 864VD infected in BALB/c mouse assessed as reducing parasitaemia at 12 to 24 mg/kg, ip administered for 3 days after infection and measured after 25 days Giemsa staining based microscopic analysis relative to control; format: functional; set-up: scale not given: the % may be the effect or the level left; details: dose 12-24 mg/kg, time 25 day
Plasmodium falciparum [9] = assay: Antimalarial activity against Plasmodium falciparum chloroquine-resistant FcB1 Columbia assessed as inhibition of growth by liquid scintillation counting method; format: functional, organism-based
[10] = Inhibition of recombinant Plasmodium falciparum A-M1 assessed as inhibition constant using para-nitroanilide as substrate at 10 nM by spectrophotometer based method
Plasmodium falciparum [11] = assay: Antimalarial activity against Plasmodium falciparum D10 incubated for 48 hrs by [3H]hypoxanthine incorporation assay; format: functional, organism-based
[12] = Inhibition of recombinant Plasmodium falciparum A-M17 assessed as inhibition constant using H-Leu-NHMec as substrate
[13] = Inhibition of recombinant Plasmodium falciparum A-M1 using Leu-pNA as substrate by microplate reader analysis
Plasmodium yoelii = assay: In vivo antiplasmodial activity against Plasmodium yoelii 17X infected in C57BL6 mouse assessed as mean survival time at 20 mg/kg, ip administered twice daily for 4 days after 2 hrs infection Giemsa staining based microscopic analysis relative to control; format: functional; details: time 4 day
Plasmodium berghei = assay: In vivo antiplasmodial activity against Plasmodium berghei K173 infected in C57BL6 mouse assessed as mean survival time at 20 mg/kg, ip administered twice daily for 4 days after 2 hrs infection Giemsa staining based microscopic analysis relative to control; format: functional; details: time 4 day
Plasmodium falciparum [14] = assay: Antimalarial activity against Plasmodium falciparum 3D7 CQ-sensitive incubated for 48 hrs by [3H]hypoxanthine incorporation assay based MicroBeta plate reader
Plasmodium falciparum [15] = assay: Antimalarial activity against multidrug resistant Plasmodium falciparum Dd2 incubated for 48 hrs by [3H]hypoxanthine incorporation assay based MicroBeta plate reader
[16] = Binding affinity to Plasmodium falciparum recombinant MetAP2 by Dex-Fum-mediated mammalian three-hybrid assay
Plasmodium falciparum [17] = assay: Antimalarial activity against multidrug resistant Plasmodium falciparum W2 assessed as reduction in proliferation incubated for 24 hrs; format: functional, organism-based; details: W2, 24 h
Plasmodium falciparum [18] = assay: Antimalarial activity against Plasmodium falciparum NF54 wild-type assessed as reduction in proliferation incubated for 24 hrs by [3H]hypoxanthine incorporation assay; format: functional, organism-based
Plasmodium falciparum [19] = assay: Antimalarial activity against Plasmodium falciparum 3D7 incubated for 48 hrs by [3H]hypoxanthine incorporation assay; format: functional, organism-based
Plasmodium chabaudi [20] = assay: In vivo antiplasmodial activity against Plasmodium chabaudi chabaudi infected in C57/BL6J mouse assessed as reducing parasitaemia at 50 mg/kg, po administered for 4 days relative to control; format: functional; set-up: scale not given: the % may be the effect or the level left; details: time 4 day
Plasmodium falciparum [21] = assay: Antimalarial activity against Plasmodium falciparum K1 incubated for 48 hrs by [3H]hypoxanthine incorporation assay; format: functional, organism-based
Plasmodium chabaudi [22] = assay: In vivo antiplasmodial activity against Plasmodium chabaudi chabaudi infected in C57/BL6J mouse assessed as reducing parasitaemia at 50 to 100 mg/kg, po administered for 4 days relative to control; format: functional; set-up: scale not given: the % may be the effect or the level left; details: dose 50-100 mg/kg, time 4 day
Plasmodium chabaudi [23] = assay: In vivo antiplasmodial activity against Plasmodium chabaudi chabaudi infected in C57/BL6J mouse assessed as reducing parasitaemia at 25 mg/kg, po administered for 4 days relative to control; format: functional; set-up: scale not given: the % may be the effect or the level left; details: time 4 day
[24] = Inhibition of Plasmodium falciparum alanyl aminopeptidase assessed as inhibition constant using H-Leu-NHMec as substrate by spectrofluorimeter based analysis
Plasmodium chabaudi [25] = assay: In vivo antiplasmodial activity against Plasmodium chabaudi chabaudi infected in C57/BL6J mouse assessed as reducing parasitaemia at 100 mg/kg, po administered for 4 days relative to control; format: functional; set-up: scale not given: the % may be the effect or the level left; details: time 4 day

SMILES: N[C@@H](CCC(=O)O)P(=O)(O)O
- Ki [1]: 0.34 µM

SMILES: Oc1ccc(CCNc2c3ccccc3nc3ccccc23)cc1O
- Activity (Plasmodium falciparum [2]): 96%
- IC50 (Plasmodium falciparum [3]): 1.3 µM

SMILES: NC1CCc2cccc(-c3ccccc3)c2CC1=O (stereo unspecified)
- half-life [4]: 2.2 h
- IC50 (Plasmodium falciparum [5]): 11.2 µM
- clearance [6]: 43 mL/min/kg
- Ki [7]: > 100 µM
- Activity (Plasmodium chabaudi [8]): 40%
- IC50 (Plasmodium falciparum [9]): 6.5 µM
- Ki [10]: 0.05 µM

SMILES: Cc1nc(-c2ccccn2)nc(NCCc2ccccc2)c1Cl
- Activity (Plasmodium yoelii): 80%
- Activity (Plasmodium berghei): 60%
- IC50 (Plasmodium falciparum [14]): 1.59 µM
- IC50 (Plasmodium falciparum [15]): 0.9 µM

SMILES: CO[C@]12C(=O)CC[C@@]1(CO)[C@H]2[C@@]1(C)O[C@@H]1CC=C(C)C
- IC50 [16]: 116 µM
- IC50 (Plasmodium falciparum [17]): 0.27 µM
- IC50 (Plasmodium falciparum [18]): 0.16 µM

SMILES: CO[C@H](C(=O)NO)[C@@H](CC(C)C)C(=O)N[C@H](C(=O)O)c1ccccc1
- IC50 (Plasmodium falciparum [19]): 2 µM
- Ki [12]: 25 µM and 25.7 µM

SMILES: NC(CCc1ccccc1)P(=O)(O)CC(Cc1ccc(O)cc1)C(=O)O (stereo unspecified)
- Ki [24]: 0.232 µM

SMILES: CO[C@H]1[C@H](C2(C)O[C@@H]2CC=C(C)C)[C@]2(CC[C@H]1OC(=O)NC(=O)CCl)CO2 (single isomer, unassigned)
- IC50 [16]: 2 µM
- IC50 (Plasmodium falciparum [17]): 0.003 µM
- IC50 (Plasmodium falciparum [18]): 0.002 µM

SMILES: CN1CCc2cccc3c2[C@@H]1Cc1ccc(O)c(O)c1-3 [(S)APOMORPHINE]
- Activity (Plasmodium falciparum [2]): 87%
- IC50 (Plasmodium falciparum [3]): 4 µM

Further lines, with some results ahead:

- IC50 (Plasmodium falciparum [11]): 8 µM
SMILES: CC(C)C[C@H](NC(=O)[C@@H](O)[C@H](N)Cc1ccc([N+](=O)[O-])cc1)C(=O)O
- Ki [12]: 0.0027 µM

- IC50 [13]: 0.854 µM
SMILES: CC(C)CN(CCCN1CCN(CCCNc2ccnc3cc(Cl)ccc23)CC1)C(=O)CC(=O)NO

- IC50 (Plasmodium falciparum [19]): 0.37 µM
- IC50 (Plasmodium falciparum [21]): 0.376 µM
SMILES: CO[C@H](C(=O)NO)[C@@H](CC(C)C)C(=O)N[C@H](C(=O)OC1CCCC1)c1ccccc1
- Activity (Plasmodium chabaudi [20]): 52%
- Activity (Plasmodium chabaudi [22]): 66%
- Ki [12]: 75 µM and 76 µM
- Activity (Plasmodium chabaudi [23]): 43%

- IC50 [13]: 21 µM
SMILES: NCCC(=O)N(CCCN1CCN(CCCNc2ccnc3cc(Cl)ccc23)CC1)CC1CC1

- IC50 [13]: 2.5 µM
SMILES: CC(C)CN(CCCN1CCN(CCCNc2ccnc3cc(Cl)ccc23)CC1)C(=O)C(N)C(=O)NO (stereo unspecified)

- IC50 (Plasmodium falciparum [11]): 20.5 µM
SMILES: COC(=O)[C@H](CC(C)C)NC(=O)[C@@H](O)[C@H](N)Cc1ccccc1 [BESTATIN METHYL ESTER]
- Ki [12]: 0.138 µM

- IC50 (Plasmodium falciparum [19]): 5 µM
- IC50 (Plasmodium falciparum [11]): 14.9 µM
SMILES: CC(C)C[C@H](NC(=O)[C@@H](O)[C@H](N)Cc1ccccc1)C(=O)O [UBENIMEX]
- Activity (Plasmodium chabaudi [25]): 34%
